In test [1] the target is T1, Sentrin-specific protease 6 (Homo sapiens, UniProt Q9GZR1).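 Also: Luminescence-based dose-response confirmatory assay of SENP6 inhibition, following up an ultra-high-throughput screen.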
T1 sequence (Q9GZR1 whole entry): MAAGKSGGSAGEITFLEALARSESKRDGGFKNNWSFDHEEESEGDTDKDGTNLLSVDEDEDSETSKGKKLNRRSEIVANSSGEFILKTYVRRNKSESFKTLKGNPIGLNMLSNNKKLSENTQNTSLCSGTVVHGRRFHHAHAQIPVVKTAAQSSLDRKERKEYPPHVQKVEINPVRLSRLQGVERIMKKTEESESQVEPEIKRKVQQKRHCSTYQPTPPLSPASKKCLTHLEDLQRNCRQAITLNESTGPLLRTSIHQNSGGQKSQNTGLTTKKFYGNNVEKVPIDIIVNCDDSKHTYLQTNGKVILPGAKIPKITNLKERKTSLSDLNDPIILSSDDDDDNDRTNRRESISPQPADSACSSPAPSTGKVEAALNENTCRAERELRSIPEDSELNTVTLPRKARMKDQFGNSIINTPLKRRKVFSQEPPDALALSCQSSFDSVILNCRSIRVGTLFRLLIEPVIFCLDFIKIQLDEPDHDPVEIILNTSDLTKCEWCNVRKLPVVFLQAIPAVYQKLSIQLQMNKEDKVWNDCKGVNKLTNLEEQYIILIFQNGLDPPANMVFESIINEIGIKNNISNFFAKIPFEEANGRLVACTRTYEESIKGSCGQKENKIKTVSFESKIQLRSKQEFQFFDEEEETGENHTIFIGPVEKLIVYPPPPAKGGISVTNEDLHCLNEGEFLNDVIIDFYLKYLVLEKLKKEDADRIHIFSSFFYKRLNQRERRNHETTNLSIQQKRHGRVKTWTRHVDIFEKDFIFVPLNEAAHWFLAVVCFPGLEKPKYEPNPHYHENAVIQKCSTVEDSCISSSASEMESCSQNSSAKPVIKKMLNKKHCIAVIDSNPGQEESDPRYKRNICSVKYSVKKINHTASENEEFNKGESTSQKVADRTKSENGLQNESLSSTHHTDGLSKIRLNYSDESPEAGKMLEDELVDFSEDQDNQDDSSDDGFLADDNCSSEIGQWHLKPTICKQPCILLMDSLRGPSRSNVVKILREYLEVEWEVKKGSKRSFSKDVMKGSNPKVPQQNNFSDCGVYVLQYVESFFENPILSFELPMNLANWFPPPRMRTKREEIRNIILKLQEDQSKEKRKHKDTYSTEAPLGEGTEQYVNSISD
Format: functional.

The target of test [2] is T2, Histone-lysine N-methyltransferase NSD2 (Homo sapiens, UniProt O96028).
T2 sequence (O96028 whole entry): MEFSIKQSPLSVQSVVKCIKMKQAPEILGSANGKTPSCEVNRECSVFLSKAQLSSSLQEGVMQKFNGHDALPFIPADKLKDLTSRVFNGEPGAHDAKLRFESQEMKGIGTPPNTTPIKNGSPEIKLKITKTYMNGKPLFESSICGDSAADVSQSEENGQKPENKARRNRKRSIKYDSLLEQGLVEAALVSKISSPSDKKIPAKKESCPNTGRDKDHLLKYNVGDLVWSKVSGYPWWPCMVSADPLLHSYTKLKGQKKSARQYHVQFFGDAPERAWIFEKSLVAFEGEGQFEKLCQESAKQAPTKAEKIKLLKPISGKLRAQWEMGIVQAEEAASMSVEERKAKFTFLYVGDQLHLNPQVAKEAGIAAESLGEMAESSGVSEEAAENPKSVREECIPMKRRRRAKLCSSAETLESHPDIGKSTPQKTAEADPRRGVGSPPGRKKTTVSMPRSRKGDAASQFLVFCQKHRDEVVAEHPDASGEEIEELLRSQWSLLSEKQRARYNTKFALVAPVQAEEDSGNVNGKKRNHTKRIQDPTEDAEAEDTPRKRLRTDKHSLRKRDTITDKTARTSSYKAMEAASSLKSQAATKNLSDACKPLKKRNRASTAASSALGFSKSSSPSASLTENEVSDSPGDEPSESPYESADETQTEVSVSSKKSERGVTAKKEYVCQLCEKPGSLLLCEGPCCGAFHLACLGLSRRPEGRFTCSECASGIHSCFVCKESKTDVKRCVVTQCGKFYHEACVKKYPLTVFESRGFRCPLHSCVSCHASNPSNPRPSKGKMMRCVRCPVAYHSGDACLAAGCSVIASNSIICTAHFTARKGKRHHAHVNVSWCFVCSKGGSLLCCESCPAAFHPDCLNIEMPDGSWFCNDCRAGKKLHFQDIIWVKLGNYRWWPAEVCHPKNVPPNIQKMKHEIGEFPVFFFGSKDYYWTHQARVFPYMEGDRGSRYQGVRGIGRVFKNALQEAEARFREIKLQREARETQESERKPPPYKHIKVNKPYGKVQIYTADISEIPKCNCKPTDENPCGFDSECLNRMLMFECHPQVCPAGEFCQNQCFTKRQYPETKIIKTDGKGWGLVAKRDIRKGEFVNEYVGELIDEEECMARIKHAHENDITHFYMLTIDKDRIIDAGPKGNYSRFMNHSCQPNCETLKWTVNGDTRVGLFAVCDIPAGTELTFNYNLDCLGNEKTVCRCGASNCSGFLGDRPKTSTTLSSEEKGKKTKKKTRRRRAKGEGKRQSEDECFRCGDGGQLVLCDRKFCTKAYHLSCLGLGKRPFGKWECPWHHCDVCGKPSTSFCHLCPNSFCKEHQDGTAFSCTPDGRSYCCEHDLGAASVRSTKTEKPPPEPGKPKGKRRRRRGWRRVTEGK
The class given is biochemical.

The target in test [3] is T3, Tyrosyl-DNA phosphodiesterase 2 (Homo sapiens, UniProt O95551).
T3 sequence (O95551 whole entry): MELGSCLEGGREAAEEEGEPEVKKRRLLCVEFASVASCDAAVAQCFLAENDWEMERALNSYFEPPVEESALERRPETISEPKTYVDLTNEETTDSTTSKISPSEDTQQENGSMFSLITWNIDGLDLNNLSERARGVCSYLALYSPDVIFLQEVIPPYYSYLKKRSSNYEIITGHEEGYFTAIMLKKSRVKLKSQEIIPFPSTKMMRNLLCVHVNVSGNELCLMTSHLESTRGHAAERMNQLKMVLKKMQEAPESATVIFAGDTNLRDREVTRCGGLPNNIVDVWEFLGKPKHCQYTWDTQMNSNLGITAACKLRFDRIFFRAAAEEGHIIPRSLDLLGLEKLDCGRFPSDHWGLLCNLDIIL
In words: potency against TDP2 phosphodiesterase activity – biochemical, epi absorbance, IC50, dose response (AID 743297).

Calls of active or inactive are those of the source.

What is called IC50 is the concentration that gives 50% inhibition. A word on the AC50: it is the concentration at which the activity in the assay is half-maximal.

Turning to `Cc1ccc(C(=O)NNc2cc(N3CCCC3)nc(N3CCCC3)n2)cc1`, the IC50 in test [1] is 0.838 µM (active). The same measure, in the same setting: then `Cc1cc(/C=C2\SC(=S)N(C)C2=O)c(C)n1-c1ccc(O)cc1`, with 4.66 µM (active). Consider `COC(=O)c1cccc(-c2ccc(C(c3c(C)n[nH]c3O)c3c(C)n[nH]c3O)o2)c1`, for which the AC50 in test [2] was > 20 µM (inactive). In addition, the IC50 in test [3] is > 128 µM (inactive). Regarding `O=C1/C(=N\c2cccc(O)c2)C(N2CCCCC2)=C(O)c2ccccc21`, in test [2], the half-maximal activity concentration (AC50) is 8.12 µM (active). The IC50 in test [3] is > 42.8 µM (inactive).

The values above are taken from ChEMBL document CHEMBL1201862, “PubChem BioAssay data set” (2004).
